Data on 21 compounds can be found in ChEMBL document CHEMBL1133508, “Syntheses and antimalarial activities of 10-substituted deoxoartemisinins” (2000).

Assay [1] has as its system Plasmodium falciparum. As to the kind of experiment: In vitro activity against chloroquine-resistant, mefloquine-sensitive Plasmodium falciparum W2. In kind it is functional.
Assay [2] deals with Plasmodium falciparum. Nature of the assay: In vitro relative activity against chloroquine-sensitive, mefloquine-resistant Plasmodium falciparum D6. The format is functional.

Take `C[C@H]1[C@@H](CC=O)O[C@@H]2OC3(C)CC[C@H]4[C@H](C)CC[C@@H]1[C@@]24OO3` (single isomer, unassigned): the results for the Relative activity in assay [1] and in assay [2] were 1.8 and 3.5, respectively.

For the compound `CC(C)C(=O)C[C@H]1O[C@@H]2OC3(C)CC[C@H]4[C@H](C)CC[C@@H]([C@H]1C)[C@@]24OO3` (single isomer, unassigned), the values for the Relative activity in assay [1] and in assay [2] were 2.1 and 1.8, respectively.

Regarding `CCOC(=O)/C=C/C[C@H]1O[C@@H]2OC3(C)CC[C@H]4[C@H](C)CC[C@@H]([C@H]1C)[C@@]24OO3` (single isomer, unassigned), the Relative activity in assay [1] was 1.4; in assay [2], 1.1.

`C[C@H]1[C@@H](C[C@H](O)C(F)(F)F)O[C@@H]2OC3(C)CC[C@H]4[C@H](C)CC[C@@H]1[C@@]24OO3` (single isomer, unassigned): the values for the Relative activity in assay [1] and in assay [2] were 3.1 and 2.5, respectively.

On to `CC(=O)C[C@H]1O[C@@H]2OC3(C)CC[C@H]4[C@H](C)CC[C@@H]([C@H]1C)[C@@]24OO3` (single isomer, unassigned), for which the results for the Relative activity in assay [1] and in assay [2] were 1.7 and 2.6, respectively.

With `CC[C@H](O)C[C@H]1O[C@@H]2OC3(C)CC[C@H]4[C@H](C)CC[C@@H]([C@H]1C)[C@@]24OO3` (single isomer, unassigned), the Relative activity in assay [1] came out at 3.6; in assay [2], 2.2.

For the compound `CCC(=O)C[C@H]1O[C@@H]2OC3(C)CC[C@H]4[C@H](C)CC[C@@H]([C@H]1C)[C@@]24OO3` (single isomer, unassigned), the Relative activity is reported as 1.3 in assay [1] and 1 in assay [2].

Take `C[C@H]1[C@@H](C2CCCC(=O)O2)O[C@@H]2OC3(C)CC[C@H]4[C@H](C)CC[C@@H]1[C@@]24OO3` (single isomer, unassigned): the figures for the Relative activity in assay [1] and in assay [2] were 2.2 and 1.4, respectively.

In the case of `CC(C)[C@@H](O)C[C@H]1O[C@@H]2OC3(C)CC[C@H]4[C@H](C)CC[C@@H]([C@H]1C)[C@@]24OO3` (single isomer, unassigned), the values for the Relative activity in assay [1] and in assay [2] were 1.7 and 2.2, respectively.

On to `CC(C)[C@H](O)C[C@H]1O[C@@H]2OC3(C)CC[C@H]4[C@H](C)CC[C@@H]([C@H]1C)[C@@]24OO3` (single isomer, unassigned), for which the Relative activity in assay [1] is given as 2.3; in assay [2], 1.4.

Turning to `C[C@H]1[C@@H](CC(=O)c2ccccc2)O[C@@H]2OC3(C)CC[C@H]4[C@H](C)CC[C@@H]1[C@@]24OO3` (single isomer, unassigned), the Relative activity came out at 2.5 in assay [1] and 0.16 in assay [2].

As to `C[C@H]1[C@@H](C#N)O[C@@H]2OC3(C)CC[C@H]4[C@H](C)CC[C@@H]1[C@@]24OO3` (single isomer, unassigned), the figures for the Relative activity in assay [1] and in assay [2] were 1.1 and 1.5, respectively.

`C[C@H]1[C@@H](C[C@@H](O)C(C)(C)C)O[C@@H]2OC3(C)CC[C@H]4[C@H](C)CC[C@@H]1[C@@]24OO3` (single isomer, unassigned): the results for the Relative activity in assay [1] and in assay [2] were 1 and 1.6, respectively.

`CC[C@@H](O)C[C@H]1O[C@@H]2OC3(C)CC[C@H]4[C@H](C)CC[C@@H]([C@H]1C)[C@@]24OO3` (single isomer, unassigned): the Relative activity in assay [1] turned out to be 4.8; in assay [2] it was 5.8.

For the compound `C[C@H]1[C@@H](C[C@@H](O)C(F)(F)F)O[C@@H]2OC3(C)CC[C@H]4[C@H](C)CC[C@@H]1[C@@]24OO3` (single isomer, unassigned), the Relative activity in assay [1] is 2.4; in assay [2], 3.1.

Turning to `C[C@H]1[C@@H](CC(=O)C(C)(C)C)O[C@@H]2OC3(C)CC[C@H]4[C@H](C)CC[C@@H]1[C@@]24OO3` (single isomer, unassigned), the Relative activity was 2.1 in assay [1] and 1.6 in assay [2].

For `C[C@H]1[C@@H](C[C@H](O)C(C)(C)C)O[C@@H]2OC3(C)CC[C@H]4[C@H](C)CC[C@@H]1[C@@]24OO3` (single isomer, unassigned), the values for the Relative activity in assay [1] and in assay [2] were 5.4 and 6.8, respectively.

Take `C[C@H]1[C@@H](C[C@H](C)O)O[C@@H]2OC3(C)CC[C@H]4[C@H](C)CC[C@@H]1[C@@]24OO3` (single isomer, unassigned): the Relative activity in assay [1] is on record as 1; in assay [2], 0.98.

As to `C[C@H]1[C@@H](C[C@@H](C)O)O[C@@H]2OC3(C)CC[C@H]4[C@H](C)CC[C@@H]1[C@@]24OO3` (single isomer, unassigned), the Relative activity in assay [1] and in assay [2] was 1.7 each time.

Regarding `C[C@H]1[C@@H](C2CCCC2=O)O[C@@H]2OC3(C)CC[C@H]4[C@H](C)CC[C@@H]1[C@@]24OO3` (single isomer, unassigned), the Relative activity in assay [1] is recorded as 1.6; in assay [2], 0.91.

For `C[C@H]1[C@@H](C2C=CC(=O)O2)O[C@@H]2O[C@]3(C)CC[C@H]4[C@H](C)CC[C@@H]1[C@@]24OO3` (some centres not stated), the Relative activity was 0.18 in assay [1] and 0.77 in assay [2].
